In paper PMC7291367, “Insightful Backbone Modifications Preventing Proteolytic Degradation of Neurotensin Analogs Improve NTS1-Induced Protective Hypothermia” (Frontiers in Chemistry, 2020):
“Also recorded” adds a separate entry of the source. Where two headings read alike, the source gives them in different places. Numbered stars: 1 amine (or outer) side, 2 acyl side, 3 side chain; on linkers, the order of the positions; unused ones are H or OH. Square brackets hold non-standard residues; d marks the D form. Peptide text beside a SMILES is read from it. X1 = NCCCC[C@H](N)CN([C@@H](CCCCN)C(=O)[*:2])[*:1]; Ala(SiMe3) = C[Si](C)(C)C[C@H](N)C(=O)O; X2 = C[Si]1(C)CC(C(=O)[*:2])N([*:1])C1; Dmt = Cc1cc(O)cc(C)c1C[C@H](N)C(=O)O; Tle = CC(C)(C)[C@H](N)C(=O)O

Experiments:
[1] = molecular target: T1, hNTS2 (Homo sapiens, UniProt O95665); experiment: Competitive radioligand binding assay, 125I-[Tyr3]-NT displacement, 1321N1 cell membranes; conditions: for fold decrease in NTS2 binding affinity: compared to NT(8-13); for NTS1/NTS2 selectivity: ratio of Ki hNTS1 to Ki hNTS2
T1 sequence (O95665 whole entry): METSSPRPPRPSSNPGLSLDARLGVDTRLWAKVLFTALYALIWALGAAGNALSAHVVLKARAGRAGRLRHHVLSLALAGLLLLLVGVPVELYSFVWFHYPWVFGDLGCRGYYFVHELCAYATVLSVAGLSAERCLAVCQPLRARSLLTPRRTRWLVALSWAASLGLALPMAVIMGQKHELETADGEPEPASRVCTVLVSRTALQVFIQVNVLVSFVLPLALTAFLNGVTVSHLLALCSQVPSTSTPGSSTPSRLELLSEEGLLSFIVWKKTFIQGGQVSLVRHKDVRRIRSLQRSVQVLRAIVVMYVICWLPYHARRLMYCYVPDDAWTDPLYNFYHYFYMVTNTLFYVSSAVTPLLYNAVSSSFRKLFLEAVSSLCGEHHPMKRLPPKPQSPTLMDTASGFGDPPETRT
Method: (§1) All media and additives are from Wisent (St-Bruno, QC). […] After 1 h of incubation at room temperature, the binding reaction mixture was transferred in polyethylenimine-coated 96-well-filter plates (Millipore, Billerica, MA). Reaction was terminated by filtration, and plates were washed three times with 200 μl of ice-cold binding buffer. […] Data were plotted using GraphPad Prism 8 using the One-site—Fit log (IC50) and represent the mean ± SEM of at least three separate experiments performed in triplicate.

[2] = tested on: Sprague-Dawley rats; experiment: Body temperature measurement after intrathecal injection; type: in vivo; conditions: rat; for effect on body temperature / temperature drop: 30 μg/kg i.t.; for effect on body temperature: compared to the saline-treated group; for Hypothermia ΔTemp: 30 μg/kg, i.t., change in body temperature from baseline at 60 min; for temperature drop: for up to 60 min
Excerpt: The experimental procedures in this study were approved by the Animal Care Committee of the Université de Sherbrooke (protocol n°035-18B) and were in accordance with policies and directives of the Canadian Council on Animal Care. Adult male Sprague-Dawley rats, weighing 175–225 g (Charles River laboratories, St-Constant, Québec, Canada), were maintained on a 12-h light/dark cycle with free access to food and water and were housed two per cage on Aspen shavings in a quiet room.
Rats were lightly anesthetized with isoflurane/oxygen (Baxter corporation, Mississauga, ON, Canada; 2 L/min) flow and 25 μl of each compound were injected intrathecally with a 27-G 1/2 needle (BD PrecisionGlide, USA) into the subarachnoid space between vertebrae L5 and L6. Analogs 1–14 were diluted in physiological saline at 5 mg/ml, whereas compounds 15 and 16 were diluted in DMSO. For body temperature measurement, the injected solution of these both compounds contained 6% DMSO at final concentration (30 μg/kg).
Three consecutive days prior to testing, animals were individually acclimatized to manipulations and to a thermistor probe 5 min per day. The day of the test, experiments were always performed in a quiet room and between 8:00 and 12:00 PM. to reduce any variation related to the circadian rhythm. Body temperature was measured using a thermistor probe inserted into the rectum of adult Sprague-Dawley rats. Temperatures were recorded immediately before (baseline) and each 10 min for up to 60 min following intrathecal administration of saline, vehicle (6% DMSO) or NT analogs at 30 μg/kg. Changes in body temperature (Δ body temp) from baseline were determined for each animal. Data are expressed as mean ± SEM of 5 to 20 animals per condition.
Data are expressed as mean ± standard errors of the mean (SEM). All graphs and statistical analysis were performed using GraphPad Prism 8 (GraphPad software, La Jolla, CA, USA). A two-way ANOVA followed by Bonferroni's multiple comparisons test was used to determine significant differences between drug- and vehicle-treated rats at different timepoints post-injection.

[3] = molecular target: T2, hNTS1 (Homo sapiens, UniProt P30989); experiment: Competitive radioligand binding assay, 125I-[Tyr3]-NT displacement, CHO-K1 cell membranes; conditions: for fold decrease in NTS1 binding affinity: compared to NT(8-13)
T2 sequence (P30989 whole entry): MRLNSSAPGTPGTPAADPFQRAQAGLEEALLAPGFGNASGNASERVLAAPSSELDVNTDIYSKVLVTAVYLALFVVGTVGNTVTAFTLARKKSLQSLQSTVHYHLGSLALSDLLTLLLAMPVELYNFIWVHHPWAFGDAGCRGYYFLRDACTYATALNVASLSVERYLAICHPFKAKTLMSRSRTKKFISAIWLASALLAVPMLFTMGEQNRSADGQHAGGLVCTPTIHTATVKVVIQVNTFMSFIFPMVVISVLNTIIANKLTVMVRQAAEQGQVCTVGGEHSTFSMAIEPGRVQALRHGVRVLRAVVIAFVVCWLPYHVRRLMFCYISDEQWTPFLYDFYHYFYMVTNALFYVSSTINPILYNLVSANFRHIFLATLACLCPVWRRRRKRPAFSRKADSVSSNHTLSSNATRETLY
Method: as §1

[4] = Plasma stability assay (UPLC/MS); type: in vitro ADME; conditions: 37°C; for half-life at 0.156 mM: rat; for Plasma stability (Half-life): rat plasma, 0.156 mM
Method: Rat plasma was obtained from blood by keeping the translucent phase after centrifugation at 15,000 g over 5 min. Plasma stability assay was carried out by incubating each compound at different incubation times in rat plasma at a final concentration of 0.156 mM. […] Then, 70 μl of a solution containing 10% trichloroacetic acid (TCA) and 0.5% nicotinamine, an internal standard, was added to stop the degradation by proteases. After centrifugation at 15,000 g for 30 min, supernatant was filtered through 0.22-μm filter and analyzed by UPLC/MS (Water H Class Acquity UPLC, mounted with Acquity UPLC BEH C18 column, 1.7 μm, 2.1 × 50 mm and paired to a SQ Detector 2). Compounds 1, 2, and 5 were analyzed using the mass or UV spectrum. Quantification was done by determining the area under the curve (AUC) ratio of each compound over AUC of nicotinamine for each incubation time. Data were plotted into GraphPad Prism 8 and the half-life of each compound was calculated using one-phase decay fit and represented the mean ± SEM of minimum three separate experiments.

[5] = molecular target: T1, hNTS2; conditions: Ki values taken from the literature (Figure 1 legend) ref Fanelli et al., 2015; Eiselt et al., 2019; read-out: Binding, Ki hNTS2; cited from earlier work
[6] = molecular target: T2, hNTS1; conditions: Ki values taken from the literature (Figure 1 legend) ref Fanelli et al., 2015; Eiselt et al., 2019; read-out: Binding, Ki hNTS1; cited from earlier work
[7] = mean ± SEM, at least three experiments, Cheng-Prusoff from IC50, read-out: Binding, Ki hNTS2

| Compound | NTS1/NTS2 selectivity [1] | effect on body temperature [2] | Hypothermia ΔTemp [2] | Ki [1] | Ki [3] | half-life at 0.156 mM ([4]; plasma, incubation up to 24 h) | other results |
| --- | --- | --- | --- | --- | --- | --- | --- |
| H-KKPKIL-OH [Compound 9, H-Lys-Lys-Pro-Lys-Ile-Leu-OH] | 25 | did not induce hypothermia; also recorded: did not cause drop in body temperature | 0.32 ± 0.2 °C |  |  |  | fold decrease in NTS2 binding affinity [1]: > 110 fold; Ki [1, 7]: 310 ± 100 nM; fold decrease in NTS1 binding affinity [3]: more than 5,000 fold |
| CC[C@H](C)[C@H](NC(=O)[C@H](Cc1ccc(O)cc1)NC(=O)C1C[Si](C)(C)CN1C(=O)[C@H](CCCCN)NC(=O)[C@@H](N)CCCCN)C(=O)N[C@@H](C[Si](C)(C)C)C(=O)O (stereo partly drawn) [Compound 7, H-Lys-Lys-Sip-Tyr-Ile-TMSAla-OH] (H-KK[X2]YI[Ala(SiMe3)]-OH) | 3.4 | not effective in reducing the body temperature; also recorded: not effective to induce drop in body temperature | −0.30 ± 0.6 °C | 16 ± 4 nM | 55 ± 5 nM |  | fold decrease in NTS2 binding affinity [1]: 6 fold; fold decrease in NTS1 binding affinity [3]: 35 fold |
| CC[C@H](C)[C@H](NC(=O)[C@H](Cc1ccc(O)cc1)NC(=O)[C@@H]1CCCN1C(=O)[C@H](CCCCN)NC(=O)[C@@H](N)CCCCN)C(=O)N[C@@H](CC(C)C)C(=O)O [Compound 1, H-Lys-Lys-Pro-Tyr-Ile-Leu-OH] |  | not effective in reducing the body temperature; also recorded: not effective to induce drop in body temperature | 0.27 ±0.2 °C | 1.1 ± 0.2 nM |  |  | half-life at 0.156 mM ([4]; short incubation times): 0.0267 ± 0.005 h |
| CC[C@H](C)[C@H](NC(=O)[C@H](Cc1ccc(O)cc1)NC(=O)C1C[Si](C)(C)CN1C(=O)[C@H](CCCCN)NC(=O)[C@@H](N)CCCCN)C(=O)N[C@@H](CC(C)C)C(=O)O (stereo partly drawn) [Compound 5, H-Lys-Lys-Sip-Tyr-Ile-Leu-OH] (H-KK[X2]YIL-OH) |  | not effective in reducing the body temperature; also recorded: not effective to induce drop in body temperature | −0.07 ± 0.2 °C |  |  |  |  |
| CC[C@H](C)[C@H](NC(=O)[C@H](Cc1ccc(O)cc1)NC(=O)C1C[Si](C)(C)CN1C(=O)[C@H](CCCCN)NC[C@@H](N)CCCCN)C(=O)N[C@@H](C[Si](C)(C)C)C(=O)O (stereo partly drawn) [Compound 8, H-LysΨ[CH2NH]Lys-Sip-Tyr-Ile-TMSAla-OH] |  |  |  |  |  | > 20 h |  |
| CC[C@H](C)[C@H](NC(=O)[C@@H](Cc1c[nH]c2ccccc12)NC(=O)[C@@H]1CCCN1C(=O)[C@H](CCCCN)NC(=O)[C@@H](N)CCCCN)C(=O)N[C@@H](C[Si](C)(C)C)C(=O)O [Compound 13, H-Lys-Lys-Pro-D-Trp-Ile-TMSAla-OH] (H-KKP[dW]I[Ala(SiMe3)]-OH) | 423 |  |  | 8.5 ± 2 nM |  |  | selectivity toward NTS2 ([1]; NTS2 over NTS1, text): > 420 fold; Plasma stability (Half-life) ([4]; short incubation times): 0.167 ± 0.033 h; half-life at 0.156 mM ([4]; plasma, short incubation times): < 0.167 h |
| CC[C@H](C)[C@H](NC(=O)[C@H](CCCCN)NC(=O)[C@@H]1CCCN1C(=O)[C@H](CCCCN)NC[C@@H](N)CCCCN)C(=O)N[C@@H](CC(C)C)C(=O)O [Compound 10, H-LysΨ[CH2NH]Lys-Pro-Lys-Ile-Leu-OH] (H-[X1]PKIL-OH) |  |  |  |  |  | 5 ± 0.2 h |  |
| CC[C@H](C)[C@H](NC(=O)[C@H](Cc1ccc(O)cc1)NC(=O)[C@@H]1CCCN1C(=O)[C@H](CCCCN)NC[C@@H](N)CCCCN)C(=O)N[C@@H](CC(C)C)C(=O)O [Compound 2, H-LysΨ[CH2NH]Lys-Pro-Tyr-Ile-Leu-OH] (H-[X1]PYIL-OH) | 6 |  |  |  | 2 ± 0.8 nM |  | Ki [1, 7]: 0.31 ± 0.08 nM; Plasma stability (Half-life) ([4]; short incubation times): 0.14 ± 0.0333 h; half-life at 0.156 mM ([4]; plasma, short incubation times): < 0.167 h |
| CC[C@H](C)[C@H](NC(=O)[C@H](Cc1ccc(O)cc1)NC(=O)C1C[Si](C)(C)CN1C(=O)[C@H](CCCCN)NC[C@@H](N)CCCCN)C(=O)N[C@@H](CC(C)C)C(=O)O (stereo partly drawn) [Compound 6, H-Lysψ[CH2NH]Lys-Sip-Tyr-Ile-Leu-OH] | 2.3 | slight decrease in core body temperature; also recorded: hypothermic response | −2.2 ± 0.3 °C | 130 ± 30 nM | 300 ± 50 nM | 22 ± 2 h | fold decrease in NTS2 binding affinity [1]: ~50 fold; fold decrease in NTS1 binding affinity [3]: 200 fold |
| CC[C@H](C)[C@H](NC(=O)[C@H](Cc1ccc(O)cc1)NC(=O)[C@@H]1CCCN1C(=O)[C@H](CCCCN)NC[C@@H](N)CCCCN)C(=O)N[C@@H](C[Si](C)(C)C)C(=O)O [Compound 4, H-Lysψ[CH2NH]Lys-Pro-Tyr-Ile-TMSAla-OH] (H-[X1]PYI[Ala(SiMe3)]-OH) | 4.5 | long-lasting hypothermia | −2.0 ± 0.10 °C | 0.55 ± 0.1 nM | 2.5 ± 0.2 nM | 2 ± 0.2 h | temperature drop [2]: more than 2 °C; fold decrease (loss) of affinity at NTS1 ([3]; compared to 3): 140 fold |
| CC[C@H](C)[C@H](NC(=O)[C@H](CCCCN)NC(=O)[C@@H]1CCCN1C(=O)[C@H](CCCCN)NC(=O)[C@@H](N)CCCCN)C(=O)N[C@@H](C[Si](C)(C)C)C(=O)O [Compound 11, H-Lys-Lys-Pro-Lys-Ile-TMSAla-OH] (H-KKPKI[Ala(SiMe3)]-OH) | 9.3 | did not induce hypothermia; also recorded: did not cause drop in body temperature | 0.04 ± 0.2 °C | 76 ± 20 nM | 710 ± 100 nM |  | fold increase in affinity toward NTS2 ([1]; compared to 9): 4 fold; fold increase in affinity toward NTS1 ([3]; compared to 9): 10 fold |
| CC[C@H](C)[C@H](NC(=O)[C@@H](Cc1c[nH]c2ccccc12)NC(=O)[C@@H]1CCCN1C(=O)[C@H](CCCCN)NC[C@@H](N)CCCCN)C(=O)N[C@@H](C[Si](C)(C)C)C(=O)O [Compound 14, H-Lysψ[CH2NH]Lys-Pro-D-Trp-Ile-TMSAla-OH] (H-[X1]P[dW]I[Ala(SiMe3)]-OH) | 16 | long-lasting hypothermia | −1.8 ± 0.2 °C | 3.5 ± 0.6 nM | 55 ± 3 nM | > 20 h | temperature drop [2]: more than 2 °C; fold increase in binding to NTS1 ([3]; compared to 13 (addition of reduced amine bond)): 65 fold |
| Cc1cc(O)cc(C)c1C[C@H](NC(=O)[C@@H]1CCCN1C(=O)[C@H](CCCCN)NC(=O)[C@@H](N)CCCCN)C(=O)N[C@H](C(=O)N[C@@H](CC(C)C)C(=O)O)C(C)(C)C [Compound 15, H-Lys-Lys-Pro-Dmt-Tle-Leu-OH] (H-KKP[Dmt][Tle]L-OH) | 24 | not effective in reducing the body temperature; also recorded: not effective to induce drop in body temperature | 0.14 ± 0.2 °C |  |  |  | Ki [5]: 2.4 ± 1 nM; Ki [6]: 57 ± 6 nM |
| CC[C@H](C)[C@H](NC(=O)[C@H](Cc1ccc(O)cc1)NC(=O)[C@@H]1CCCN1C(=O)[C@H](CCCNC(=N)N)NC(=O)[C@@H](N)CCCNC(=N)N)C(=O)N[C@@H](CC(C)C)C(=O)O [NT(8-13), H-Arg-Arg-Pro-Tyr-Ile-Leu-OH, reference compound] |  |  |  |  |  |  | half-life at 0.156 mM ([4]; short incubation times): 0.0167 ± 0.00167 h |
